PubChem BioAssay (NCI)
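Protocol summary: plate cells (96-well), add compound at 5 concentrations, incubate 48 h, interpolate endpoints linearly. TGI: concentration producing complete growth inhibition.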

What was measured:
Assay in all cases: NCI-60 cell line screen, 48 h
MOLT-4 leukemia = test system: MOLT-4 leukemia
NCI-H23 lung = test system: NCI-H23 lung
HOP-62 NSCLC = test system: HOP-62 NSCLC
U251 CNS = test system: U251 CNS
HOP-92 NSCLC = test system: HOP-92 NSCLC
OVCAR-8 ovarian = test system: OVCAR-8 ovarian
UACC-257 melanoma = test system: UACC-257 melanoma
SW-620 colon = test system: SW-620 colon
OVCAR-3 ovarian = test system: OVCAR-3 ovarian
NCI-H522 lung = test system: NCI-H522 lung
ACHN renal = test system: ACHN renal
MALME-3M melanoma = test system: MALME-3M melanoma
A498 renal = test system: A498 renal
OVCAR-4 ovarian = test system: OVCAR-4 ovarian
IGROV1 ovarian = test system: IGROV1 ovarian
DU-145 prostate = test system: DU-145 prostate
LOX IMVI melanoma = test system: LOX IMVI melanoma
SK-OV-3 ovarian = test system: SK-OV-3 ovarian
NCI-H226 lung = test system: NCI-H226 lung
PC-3 prostate = test system: PC-3 prostate
MDA-N = test system: MDA-N
SK-MEL-28 melanoma = test system: SK-MEL-28 melanoma
K-562 leukemia = test system: K-562 leukemia
HL-60(TB) leukemia = test system: HL-60(TB) leukemia
HCT-15 colon = test system: HCT-15 colon
HS 578T breast = test system: HS 578T breast
SNB-75 CNS = test system: SNB-75 CNS
HT29 colon = test system: HT29 colon
NCI/ADR-RES ovarian = test system: NCI/ADR-RES ovarian
CAKI-1 renal = test system: CAKI-1 renal
M14 melanoma = test system: M14 melanoma
MDA-MB-231 breast = test system: MDA-MB-231 breast
RXF 393 renal = test system: RXF 393 renal
SF-268 CNS = test system: SF-268 CNS
UACC-62 melanoma = test system: UACC-62 melanoma
SN12C renal = test system: SN12C renal
BT-549 breast = test system: BT-549 breast
SR leukemia = test system: SR leukemia
MDA-MB-435 = test system: MDA-MB-435
T-47D breast = test system: T-47D breast
EKVX NSCLC = test system: EKVX NSCLC
CCRF-CEM leukemia = test system: CCRF-CEM leukemia
SK-MEL-2 melanoma = test system: SK-MEL-2 melanoma
SF-295 CNS = test system: SF-295 CNS
OVCAR-5 ovarian = test system: OVCAR-5 ovarian
MCF7 breast = test system: MCF7 breast
RPMI-8226 leukemia = test system: RPMI-8226 leukemia
HCT-116 colon = test system: HCT-116 colon
UO-31 renal = test system: UO-31 renal
SK-MEL-5 melanoma = test system: SK-MEL-5 melanoma
COLO 205 colon = test system: COLO 205 colon
A549 NSCLC = test system: A549 NSCLC
KM12 colon = test system: KM12 colon
786-0 renal = test system: 786-0 renal
NCI-H460 lung = test system: NCI-H460 lung
SNB-19 CNS = test system: SNB-19 CNS
TK-10 renal = test system: TK-10 renal
SF-539 CNS = test system: SF-539 CNS
HCC-2998 colon = test system: HCC-2998 colon

CCOC(=O)C1C(O)CC2c3ccccc3-c3ccccc3C21 (stereo not given)
TGI (MOLT-4 leukemia): > 100 µM | TGI (NCI-H23 lung): > 100 µM | TGI (HOP-62 NSCLC): 91.2 µM | TGI (U251 CNS): 75.5 µM | TGI (HOP-92 NSCLC): 75 µM | TGI (OVCAR-8 ovarian): 48.1 µM | TGI (UACC-257 melanoma): > 100 µM | TGI (SW-620 colon): > 100 µM | TGI (OVCAR-3 ovarian): > 100 µM | TGI (NCI-H522 lung): > 100 µM | TGI (ACHN renal): > 100 µM | TGI (MALME-3M melanoma): > 100 µM | TGI (A498 renal): 68.9 µM | TGI (OVCAR-4 ovarian): > 100 µM | TGI (IGROV1 ovarian): > 100 µM | TGI (DU-145 prostate): > 100 µM | TGI (LOX IMVI melanoma): > 100 µM | TGI (SK-OV-3 ovarian): 45.5 µM | TGI (NCI-H226 lung): 60.1 µM | TGI (PC-3 prostate): > 100 µM | TGI (MDA-N): > 100 µM | TGI (SK-MEL-28 melanoma): > 100 µM | TGI (K-562 leukemia): > 100 µM | TGI (HL-60(TB) leukemia): > 100 µM | TGI (HCT-15 colon): > 100 µM | TGI (HS 578T breast): 60.6 µM | TGI (SNB-75 CNS): 67.1 µM | TGI (HT29 colon): > 100 µM | TGI (NCI/ADR-RES ovarian): > 100 µM | TGI (CAKI-1 renal): > 100 µM | TGI (M14 melanoma): > 100 µM | TGI (MDA-MB-231 breast): > 100 µM | TGI (RXF 393 renal): > 100 µM | TGI (SF-268 CNS): > 100 µM | TGI (UACC-62 melanoma): > 100 µM | TGI (SN12C renal): > 100 µM | TGI (BT-549 breast): > 100 µM | TGI (SR leukemia): > 100 µM | TGI (MDA-MB-435): > 100 µM | TGI (T-47D breast): > 100 µM | TGI (EKVX NSCLC): > 100 µM | TGI (CCRF-CEM leukemia): > 100 µM | TGI (SK-MEL-2 melanoma): > 100 µM | TGI (SF-295 CNS): > 100 µM | TGI (OVCAR-5 ovarian): > 100 µM | TGI (MCF7 breast): > 100 µM | TGI (RPMI-8226 leukemia): > 100 µM | TGI (HCT-116 colon): 41.4 µM | TGI (UO-31 renal): > 100 µM | TGI (SK-MEL-5 melanoma): > 100 µM | TGI (COLO 205 colon): > 100 µM | TGI (A549 NSCLC): > 100 µM | TGI (KM12 colon): > 100 µM | TGI (786-0 renal): 89 µM | TGI (NCI-H460 lung): > 100 µM | TGI (SNB-19 CNS): > 100 µM | TGI (TK-10 renal): > 100 µM

CC1=C(O)C(=O)C(C2=C(O)C(=O)C(C)=C(O)C2=O)=C(O)C1=O
TGI (MOLT-4 leukemia): > 100 µM | TGI (NCI-H23 lung): > 100 µM | TGI (HOP-62 NSCLC): > 100 µM | TGI (U251 CNS): > 100 µM | TGI (HOP-92 NSCLC): 92.1 µM | TGI (OVCAR-8 ovarian): > 100 µM | TGI (UACC-257 melanoma): > 100 µM | TGI (SW-620 colon): > 100 µM | TGI (OVCAR-3 ovarian): > 100 µM | TGI (NCI-H522 lung): > 100 µM | TGI (ACHN renal): > 100 µM | TGI (MALME-3M melanoma): 46.6 µM | TGI (A498 renal): > 100 µM | TGI (OVCAR-4 ovarian): > 100 µM | TGI (IGROV1 ovarian): > 100 µM | TGI (DU-145 prostate): > 100 µM | TGI (LOX IMVI melanoma): > 100 µM | TGI (SK-OV-3 ovarian): > 100 µM | TGI (NCI-H226 lung): > 100 µM | TGI (PC-3 prostate): > 100 µM | TGI (MDA-N): > 100 µM | TGI (SK-MEL-28 melanoma): > 100 µM | TGI (K-562 leukemia): > 100 µM | TGI (HL-60(TB) leukemia): > 100 µM | TGI (HCT-15 colon): > 100 µM | TGI (HS 578T breast): > 100 µM | TGI (SNB-75 CNS): > 100 µM | TGI (HT29 colon): > 100 µM | TGI (NCI/ADR-RES ovarian): > 100 µM | TGI (CAKI-1 renal): > 100 µM | TGI (M14 melanoma): > 100 µM | TGI (MDA-MB-231 breast): > 100 µM | TGI (RXF 393 renal): > 100 µM | TGI (SF-268 CNS): > 100 µM | TGI (UACC-62 melanoma): 54 µM | TGI (SN12C renal): > 100 µM | TGI (BT-549 breast): > 100 µM | TGI (SR leukemia): > 100 µM | TGI (MDA-MB-435): > 100 µM | TGI (T-47D breast): > 100 µM | TGI (EKVX NSCLC): > 100 µM | TGI (CCRF-CEM leukemia): > 100 µM | TGI (SF-295 CNS): > 100 µM | TGI (OVCAR-5 ovarian): > 100 µM | TGI (MCF7 breast): > 100 µM | TGI (RPMI-8226 leukemia): > 100 µM | TGI (SF-539 CNS): > 100 µM | TGI (HCT-116 colon): > 100 µM | TGI (UO-31 renal): > 100 µM | TGI (SK-MEL-5 melanoma): 67.9 µM | TGI (HCC-2998 colon): > 100 µM | TGI (COLO 205 colon): > 100 µM | TGI (KM12 colon): > 100 µM | TGI (786-0 renal): > 100 µM | TGI (NCI-H460 lung): > 100 µM | TGI (SNB-19 CNS): > 100 µM

O=c1cc(-c2ccccc2)c2ccc(O)c(CN(CCCl)CCCl)c2o1
TGI (MOLT-4 leukemia): 47.8 µM | TGI (NCI-H23 lung): 41.7 µM | TGI (HOP-62 NSCLC): 33.2 µM | TGI (U251 CNS): 56.9 µM | TGI (HOP-92 NSCLC): 56.8 µM | TGI (OVCAR-8 ovarian): 48.2 µM | TGI (UACC-257 melanoma): 33.9 µM | TGI (SW-620 colon): 69.7 µM | TGI (OVCAR-3 ovarian): 40.4 µM | TGI (NCI-H522 lung): 35.7 µM | TGI (ACHN renal): 64 µM | TGI (MALME-3M melanoma): 41.3 µM | TGI (A498 renal): 41.6 µM | TGI (OVCAR-4 ovarian): > 100 µM | TGI (IGROV1 ovarian): 33.8 µM | TGI (DU-145 prostate): > 100 µM | TGI (LOX IMVI melanoma): 22.1 µM | TGI (NCI-H226 lung): 32.5 µM | TGI (PC-3 prostate): 36.8 µM | TGI (MDA-N): 35.1 µM | TGI (SK-MEL-28 melanoma): 36.7 µM | TGI (K-562 leukemia): 91.5 µM | TGI (HL-60(TB) leukemia): 40.4 µM | TGI (HCT-15 colon): 45.2 µM | TGI (HS 578T breast): 69.5 µM | TGI (SNB-75 CNS): 38.9 µM | TGI (HT29 colon): 26 µM | TGI (NCI/ADR-RES ovarian): > 100 µM | TGI (CAKI-1 renal): 29.1 µM | TGI (M14 melanoma): 42 µM | TGI (MDA-MB-231 breast): 33.2 µM | TGI (RXF 393 renal): 30.1 µM | TGI (SF-268 CNS): 44.5 µM | TGI (UACC-62 melanoma): 51.6 µM | TGI (SN12C renal): 38.5 µM | TGI (BT-549 breast): 25 µM | TGI (SR leukemia): 33.1 µM | TGI (MDA-MB-435): 39.9 µM | TGI (T-47D breast): 55.6 µM | TGI (EKVX NSCLC): 59.1 µM | TGI (CCRF-CEM leukemia): 20.7 µM | TGI (SK-MEL-2 melanoma): 59.8 µM | TGI (SF-295 CNS): 29.7 µM | TGI (OVCAR-5 ovarian): 34.1 µM | TGI (MCF7 breast): > 100 µM | TGI (RPMI-8226 leukemia): 47.8 µM | TGI (SF-539 CNS): 44.4 µM | TGI (HCT-116 colon): 43.1 µM | TGI (UO-31 renal): 36.9 µM | TGI (SK-MEL-5 melanoma): 31 µM | TGI (HCC-2998 colon): 25 µM | TGI (COLO 205 colon): 25.9 µM | TGI (A549 NSCLC): 57.3 µM | TGI (KM12 colon): 35.8 µM | TGI (786-0 renal): 39.3 µM | TGI (NCI-H460 lung): > 100 µM | TGI (SNB-19 CNS): 47 µM
